Laboratory results: patent US20260055061A1, “HALOPHTHALIMIDE COMPOUNDS AND METHODS OF USE AGAINST TBI, INFLAMMATORY DISORDER, AUTOIMMUNE DISORDER, NEURODEGENERATIVE DISEASE OR VIRAL INFECTION” (The United States of America, as represented by the …, priority 2022, published 2026)
“Also recorded” adds a separate entry of the source.

What was measured:
TNF-α [1] = assay: LPS model of inflammation in rats: TNF-α in plasma and brain; assay type: in vivo, rat; settings: for TNF-α plasma levels (in words): both doses (TFBP 16.25/32.5, TFNBP 14.33/28.66 mg/kg i.p.), 4 hr post LPS
Protocol: LPS model of inflammation in rats: Male Fischer 344 rats (Charles River Laboratories, Wilmington, MA, USA) (approx. 150 g weight) were randomly assigned across groups, and thereafter administered either vehicle (Veh), or TFBP or TFNBP. Two doses of TFBPs were evaluated: (TFBP: 16.25 mg/kg or 32.5 mg/kg, and for TFNBP: 14.33 mg/kg or 28.66 mg/kg), i.p. These compounds were suspended in 1% carboxymethyl cellulose (CMC) in saline (0.9%), and administered 60 min prior to either administration of LPS (1 mg/kg, Sigma, St Louis, MO, E. coli O55:B5 in saline (0.9%), 0.1 ml/kg i.p.) or of Vehicle (CMC in saline (0.9%) 0.1 ml/kg, i.p.). […] At 4 hr following LPS or Veh, animals were euthanized, and plasma and brain (hippocampus) tissue samples were collected and stored at −80° C. Brain samples were later sonicated in a Tris-based lysis buffer (Mesoscale Discovery, Gaithersburg, MD, USA) with protease/phosphatase inhibitors (Halt™ Protease and Phosphatase Inhibitor Cocktail, ThermoFisher Scientific, Asheville, NC, USA, diluted to 3×). Next, brain samples were centrifuged (10,000 g, 10 min, 4° C.), and protein concentrations were determined by Bicinchoninic acid assay (BCA, ThermoFisher Scientific, Asheville, NC, USA). An ELISA for TNF-α, IL-6, IL-1B, IL-10 and IL-13 was later performed following the manufacturer's protocol (Mesoscale Discovery).
Four hours after LPS injection, animals were euthanized, and blood and brain tissue were collected and placed on wet ice. Plasma was quickly separated from blood by centrifuge at 10,000 g. 5 min, 4° C., and brain regions of cortex, hippocampus and the rest of brain were dissected into separate vials on wet ice, then stored at −80° C. Brain tissues were then sonicated in a TRIS based lysis buffer (Mesoscale Discovery) with 3× protease/phosphatase inhibitors (Halt™ Protease and Phosphatase Inhibitor Cocktail, Thermo Fisher Scientific), were then centrifuged at 10,000 g, 10 min, 4° C., and protein concentrations were measured by Bicinchoninic acid assay (BCA, Thermo Fisher Scientific). Rat plasma, cerebral cortical and hippocampal samples were then analyzed by multi-proinflammatory cytokines ELISA (V-PLEX Proinflammatory Panel 2 Rat Kit, Mesoscale Discovery), following the manufacturer's protocol. The processes and dosages of the experiment of drug treatment effects on LPS rat model was made on the basis of our previous studies.

TNF-α [2] = assay: LPS-induced TNF-α production in RAW 264.7 cells (ELISA); assay type: cell-based, mouse; settings: for TNF-α level / TNF-α % Δ: 1 μM, LPS-challenged RAW 264.7 cells; for TNF-α % Δ: percentage of vehicle control value (control = 100%), mean ± S.E.M., n = 3; for LPS-induced TNF-α in cell culture media (in words): 100-1000 nM; for concentration from which TNF-α was significantly reduced: 100-1000 nM tested, vs LPS+Vehicle
Procedure, shortened: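 Sandwich ELISA of TNF-α secreted into the media of RAW 264.7 cultures, with a biotinylated detection antibody, avidin-HRP and TMB substrate. Absorbance read at 450 nm with 570 nm background subtraction. Levels interpolated from a TNF-α protein standard curve.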

[3] = system: LPS-induced nitrite in RAW 264.7 cells; assay: LPS-induced nitrite production in RAW 264.7 cells (Griess reagent / fluorometric kit); assay type: cell-based, mouse; settings: for nitrite levels / nitrite level, % of vehicle control / nitrite inhibitory activity (comparison in words): 1 μM; for nitrite levels / nitrite level, % of vehicle control: LPS-challenged RAW 264.7 cells; for nitrite level, % of vehicle control: percentage of vehicle control value (control = 100%), mean ± S.E.M., n = 3; for nitrite inhibitory activity (comparison in words): tetrafluoro vs corresponding difluoro or stereoisomer; for LPS-induced nitrite in cell culture media (in words): 100-1000 nM; for concentration from which nitrite levels were significantly reduced: 100-1000 nM tested, vs LPS+Vehicle
Procedure, shortened: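 Nitrite in culture media of LPS-challenged RAW 264.7 cells measured as a stable surrogate for NO, using Griess reagent (sulfanilamide, then N-1-naphthylethylenediamine, 10 min each in the dark). Absorbance at 550 nm, with levels read against a nitrite standard curve ([…]) made in matching medium.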

IFN-γ = assay: LPS model of inflammation in rats: IFN-γ in plasma and cortex; assay type: in vivo, rat; settings: LPS-challenged rats; for IFN-γ in plasma (in words): low and high dose
[4] = high dose (TFBP 32.5, TFNBP 28.66 mg/kg i.p.)
[5] = low dose (TFBP 16.25, TFNBP 14.33 mg/kg i.p.)

Compound	TNF-α plasma levels (in words) (TNF-α [1])	Cerebral cortex TNF-α, change vs. LPS group (TNF-α [1]; [4])	Cerebral cortex TNF-α, change vs. LPS group (TNF-α [1]; [5])	TNF-α level (TNF-α [2])	TNF-α % Δ (TNF-α [2])	LPS-induced TNF-α in cell culture media (in words) (TNF-α [2])	concentration from which TNF-α was significantly reduced (TNF-α [2])	nitrite levels [3]	nitrite level, % of vehicle control [3]	nitrite inhibitory activity (comparison in words) [3]	LPS-induced nitrite in cell culture media (in words) [3]	concentration from which nitrite levels were significantly reduced [3]	Brain cortex IFN-γ levels (in words) (IFN-γ)	IFN-γ in plasma (in words) (IFN-γ)	also measured
CC1(C)[C@@H]2CC[C@@]1(C)[C@@H](N1C(=O)c3c(F)c(F)c(F)c(F)c3C1=O)C2 [Compound 14, 4,5,6,7-Tetrafluoro-2-((1R,2S,4R)-1,7,7-trimethylbicyclo[2.2.1]heptan-2-yl) isoindoline-1,3-dione]	reduced this increase	−58.3%	−41.7%	55-74%	55 ± 1%	significantly decreased	≥ 600 nM	25-36%	26 ± 3%	more potent nitrite inhibitory activity	significantly decreased	≥ 100 nM	not impacted	proved able to reduce this rise	TNF-α plasma levels, decline vs. LPS alone group (TNF-α [1]; higher dose (TFBP 32.5 mg/kg i.p.), 4 hr post LPS 1 mg/kg): −76%
O=C1c2c(F)c(F)c(F)c(F)c2C(=O)N1C1CC2CCC1C2 (stereo not drawn) [Compound 16, 2-Endo-(bicyclo[2.2.1]heptan-2-yl)-4,5,6,7-tetrafluoroisoindoline-1,3-dione]	reduced this increase	−41.7%	only effectively did so at the higher tested dose	55-74%	74 ± 3%	significantly decreased; also recorded: effective in decreasing levels of nitrite and TNF-α	≥ 300 nM	25-36%	36 ± 4%	more potent nitrite inhibitory activity	significantly decreased; also recorded: effective in decreasing levels of nitrite and TNF-α	≥ 300 nM	not impacted	proved able to reduce this rise	–
Nc1ccc(F)c2c1C(=S)N(C1CCC(=S)NC1=O)C2=O (centres unmarked) [Compound 30, 4-amino-7-fluoro-2-(2-oxo-6-thioxopiperidin-3-yl)-3-thioxoisoindolin-1-one]	–	–	–	–	–	–	–	–	–	–	–	–	–	–	TNF-α in plasma and brain (TNF-α [1]; 29.57 mg/kg i.p., LPS rat model): significantly reduce; LPS-induced elevation in TNF-α levels (in words) (TNF-α [2]; 0.6-60 μM, LPS 60 ng/mL, 24 h): significantly lowered; Nitrite, % Change versus Control (± s.e.m.) ([3]; 10 uM, LPS-activated RAW 264.7 cells): 35.3 ± 3.0%; drop in LPS-induced nitrite production ([3]; 10 μM, stimulated RAW cells): 65%; LPS-induced elevation in nitrite levels (in words) ([3]; 0.6-60 μM, LPS 60 ng/mL, 24 h): significantly lowered; nitrite levels (in words) ([3]; six-compound pomalidomide grouping, RAW cell assay, FIGS. 12-13): superior
